Reference: patent US9908875B2, “Apoptosis signal-regulating kinase inhibitors” (Gilead Sciences, Inc., priority 2013, dated 2018)

Each molecule was assayed against recombinant human ASK1 kinase (Homo sapiens (Human), UniProt Q99683) (assay: TR-FRET ASK1 (Apoptosis Signal-Regulating Kinase 1) kinase assay). Settings: 4 nM ASK1, 1 μM STK3 peptide substrate, 100 μM ATP, HTRF detection; average of quadruplicate determination; read-out: IC50 (nM), activities of the compounds of Formula (I) to ASK1.
Chain of recombinant human ASK1 kinase (Q99683 whole entry): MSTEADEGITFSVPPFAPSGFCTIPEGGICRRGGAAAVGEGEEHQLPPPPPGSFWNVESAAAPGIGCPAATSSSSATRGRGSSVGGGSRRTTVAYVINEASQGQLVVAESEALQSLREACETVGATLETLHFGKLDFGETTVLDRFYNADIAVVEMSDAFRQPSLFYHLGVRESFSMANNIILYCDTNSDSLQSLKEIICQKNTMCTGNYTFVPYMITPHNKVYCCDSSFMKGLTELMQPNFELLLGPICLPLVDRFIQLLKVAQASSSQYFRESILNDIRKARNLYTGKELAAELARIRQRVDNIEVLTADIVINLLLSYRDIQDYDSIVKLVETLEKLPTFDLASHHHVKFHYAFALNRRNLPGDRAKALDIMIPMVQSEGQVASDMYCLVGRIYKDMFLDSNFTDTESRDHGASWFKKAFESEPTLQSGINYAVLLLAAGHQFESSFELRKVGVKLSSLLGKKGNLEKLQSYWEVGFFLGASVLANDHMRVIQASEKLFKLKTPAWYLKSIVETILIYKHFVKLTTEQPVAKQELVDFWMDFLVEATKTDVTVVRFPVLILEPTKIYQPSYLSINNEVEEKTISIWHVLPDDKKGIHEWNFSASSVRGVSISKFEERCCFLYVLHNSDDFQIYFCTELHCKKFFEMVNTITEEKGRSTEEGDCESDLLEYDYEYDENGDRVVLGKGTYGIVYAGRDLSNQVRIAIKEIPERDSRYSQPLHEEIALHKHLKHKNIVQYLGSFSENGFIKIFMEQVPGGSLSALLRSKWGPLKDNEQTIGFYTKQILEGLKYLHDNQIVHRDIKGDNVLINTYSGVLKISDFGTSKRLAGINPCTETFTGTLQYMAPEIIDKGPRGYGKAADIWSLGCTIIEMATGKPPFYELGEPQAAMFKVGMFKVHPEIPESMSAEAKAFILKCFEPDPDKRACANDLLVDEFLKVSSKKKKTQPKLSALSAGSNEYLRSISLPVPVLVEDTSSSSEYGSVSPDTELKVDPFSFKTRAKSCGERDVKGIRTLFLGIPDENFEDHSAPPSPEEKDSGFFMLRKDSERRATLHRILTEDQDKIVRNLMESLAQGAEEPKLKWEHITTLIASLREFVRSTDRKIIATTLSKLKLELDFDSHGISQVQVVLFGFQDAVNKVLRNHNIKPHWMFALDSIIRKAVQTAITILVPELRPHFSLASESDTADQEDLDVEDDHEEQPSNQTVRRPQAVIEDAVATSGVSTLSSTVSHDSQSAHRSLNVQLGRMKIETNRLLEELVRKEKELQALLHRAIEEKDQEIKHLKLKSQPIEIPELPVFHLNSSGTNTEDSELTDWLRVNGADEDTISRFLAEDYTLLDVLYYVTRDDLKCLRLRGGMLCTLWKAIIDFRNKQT
Type: biochemical
From the text: I. TR-FRET ASK1 (Apoptosis Signal-Regulating Kinase 1) Kinase Assay
To evaluate the inhibitory activity of compounds of the invention against ASK1 (Apoptosis Signal-regulating Kinase 1) kinase, its activity was examined using a TR-FRET ASK1 kinase assay which determined the amount of phosphate transferred to a peptide substrate from ATP.
Dephosphorylated recombinant human ASK1 kinase was from Gilead Sciences. Small molecule kinase inhibitor staurosporine (Catalogue #S6942) and dithiothreitol (DTT, catalogue #43815-5G) were obtained from Sigma Chemicals (St. Louis, Mo.). ATP (catalogue #7724) was from Affymetrix (Santa Clara, Calif.) and test compounds were from Gilead Sciences. HTRF KinEASE™-STK S3 kit was obtained from Cisbio (Bedford, Mass.). All other reagents were of the highest grade commercially available.
The assay measures the phosphorylation level of a biotinylated peptide substrate by the ASK1 kinase using HTRF detection. This is a competitive, time-resolved fluorescence resonance energy transfer (TR-FRET) immunoassay, based on HTRF® KinEASE™-STK manual from Cisbio. Test compound, 1 μM STK3 peptide substrate, 4 nM of ASK1 kinase were incubated with 10 mM MOP buffer, pH. 7.0 containing 10 mM Mg-acetate, 0.025% NP-40, 1 mM DTT, 0.05% BSA and 1.5% glycerol for 30 minutes then 100 μM ATP was added to start the kinase reaction and incubated for 3 hr. Peptide antibody labeled with 1× Eu^3+ Cryptate buffer containing 10 mM EDTA and 125 nM Streptavidin XL665 were added to stop the reaction and phosphorylated peptide substrate was detected using Envision 2103 Multilabeled reader from PerkinElmer. The fluorescence was measured at 615 nm (Cryptate) and 665 nm (XL665) and a ratio of 665 nm/615 nm was calculated for each well. The resulting TR-FRET level (a ratio of 665 nm/615 nm) was proportional to the phosphorylation level. Under these assay conditions, the degree of phosphorylation of peptide substrate was linear with time and concentration for the enzyme. The assay system yielded consistent results with regard to Km and specific activities for the enzyme. For inhibition experiments (IC50 values), activities were performed with constant concentrations of ATP, peptide and several fixed concentrations of inhibitors. Staurosporine, the nonselective kinase inhibitor, was used as the positive control. All enzyme activity data are reported as an average of quadruplicate determination.
The IC50 values were calculated following equation: y=Range/{1+(x/IC50)^s}+Background where x and y represent the concentration of inhibitors and enzyme activity, respectively. Enzyme activity is expressed as the amount of Phosphate incorporated into substrate peptide from ATP. Range is the maximum y range (no inhibitor, DMSO control) and s is a slope factor.
In the case of `O=C(Nc1csc(-c2nncn2C2CC2)n1)c1cc(-n2cnc(C3CC3)c2)c(N2CCN3CCCC3C2)cn1` (stereo not shown) [Compound 15, 5-(3,4,6,7,8,8a-hexahydro-1H-pyrrolo[1,2-a]pyrazin-2-yl)-4-(4-cyclopropylimidazol-1-yl)-N-[2-(4-cyclopropyl-1,2,4-triazol-3-yl)-1,3-thiazol-4-yl]pyridine-2-carboxamide], the IC50 is reported as 2.7 nM. Work on `C[C@H](n1cnnc1-c1nc(NC(=O)c2cc(-n3cnc(C4CC4)c3)c(N3CC(C)(C#N)C3)cn2)cs1)C(F)(F)F` [Compound 24, (S)-5-(3-cyano-3-methylazetidin-1-yl)-4-(4-cyclopropyl-1H-imidazol-1-yl)-N-(2-(4-(1,1,1-trifluoropropan-2-yl)-4H-1,2,4-triazol-3-yl)thiazol-4-yl)picolinamide] yielded an IC50 of 1.4 nM. `C[C@H](n1cnnc1-c1nc(NC(=O)c2cc(-n3cnc(C4CC4)c3)c(N3CCN(CC(F)(F)F)CC3)cn2)cs1)C(F)(F)F` [Compound 33, (S)-4-(4-cyclopropyl-1H-imidazol-1-yl)-5-(4-(2,2,2-trifluoroethyl)piperazin-1-yl)-N-(2-(4-(1,1,1-trifluoropropan-2-yl)-4H-1,2,4-triazol-3-yl)thiazol-4-yl)picolinamide] showed an IC50 of 1.2 nM. Molecule `COC1CCN(c2cnc(C(=O)Nc3csc(-c4nncn4[C@@H](C)C(F)(F)F)n3)cc2-n2cnc(C3CC3)c2)C1` (stereo partly drawn) [Compound 28, 4-(4-cyclopropyl-1H-imidazol-1-yl)-5-(3-methoxypyrrolidin-1-yl)-N-(2-(4-((S)-1,1,1-trifluoropropan-2-yl)-4H-1,2,4-triazol-3-yl)thiazol-4-yl)picolinamide] has an IC50 of 1.9 nM.
